Assays:
Format in all cases: cell-based, human
[1] = system: monocyte derived macrophages; test: Factors secreted by monocyte derived macrophages treated with MUC1-ST (ELISA)
Protocol: (§1) ELISAs for IL-6, IL-12p70, TGF-β1, PAI-1, M-CSF, EGF, SHP2, phospho-SHP2 (Biotechne) were all carried out as per manufacturer's instructions.
Secreted proteins from monocyte derived macrophages were assayed by ELISA as described in Example 2. […] All of these factors are associated with tumor progression (Duffy et al. (2014) BREAST CANCER RES. 16: 428; Jensen et al. (2002) CLIN. CANCER RES. 9:4423-4434). […] It has been discovered that MUC1-ST/Siglec-9 ‘educated’ monocytes and macrophages have a unique secretome.

[2] = system: macrophages; test: Kynurenine in supernatant of MUC1-ST treated macrophages (Ehrlich Reagent)
Protocol: Given that IDO catalyzes the rate-limiting step in the metabolism of tryptophan, the tryptophan metabolite kynurenine was detected as follows. 604, supernatant was mixed with 304, 30% trichloroacetic acid (TCA) and incubated for 30 minutes at 50° C. The supernatant was spun at 3000×g and 50 μL was harvested and mixed with 50 μL freshly prepared Ehrlich Reagent (2% p-dimethylaminobenzaldehyde in glacial acetic acid). After 10 minutes optical density (O.D.) was measured at 492 nm, and concentrations were calculated against a kynurenine standard curve. An increase in the tryptophan metabolite kynurenine was observed (FIG. 11D).

[3] = system: monocytes; test: Nitric oxide release by monocytes (Griess method)
Protocol: MUC1-ST was further evaluated for its ability to produce pro-inflammatory nitric oxide, a product of the arginine processing enzyme (Thompson et al. (2015) CARCINOGENESIS 36: S232-S253). Supernatant was assessed using the Griess method according to the manufacturer's instructions (Biotium).

[4] = system: CD8+ T cells; test: Co-culture of MUC1-ST educated M-CSF macrophages with CD3/CD28 stimulated autologous T cells; conditions: MUC1-ST educated M-CSF macrophages
Protocol: In addition, primary monocytes were induced to differentiate to macrophages in the presence of MUC1-ST and then co-cultured for 48 hours with CD3/CD28 stimulated autologous CD8+ or CD4+ T cells. T cell proliferation and CD69/CD25 cell surface expression were measured using flow cytometry.

[5] = system: isolated monocytes; test: Factors released by monocytes after MUC1-ST treatment (protein array, ELISA); conditions: 100 μg/10^6 cells MUC1-ST, 48 hours
Protocol: as §1
Recombinant MUC1-ST was bound to monocytes and the factors released determined using a protein array as follows. Briefly, isolated monocytes were treated with 100 μg/10^6 cells MUC1-ST for 4 hours at 4° C., washed and incubated at 37° C. for 48 hours in AIM-V serum-free media. Supernatant was taken and cytokine production was assessed using a 102 protein array (Bio-Techne).

[6] = system: M-CSF macrophages differentiated with LPS and IFNγ; test: Differentiation of monocytes into M(LPS+IFNγ) macrophages: CD86 and IL-12; conditions: MUC1-ST added at day 1 of the culture
Protocol: Both the cell phenotype staining and neutralization studies described in the Examples were performed using the following antibodies (all anti-human): Siglec-9 (Biotechne; 191240), Siglec-9 FITC (Biotechne; 191240), Siglec-3 (Biotechne; 6C5/2), Siglec-7 (Biotechne; AF1138), Siglec-3 FITC (BD; P67.6), Siglec-7 PE (Biolegend; 6-434), Siglec-10 PE (Biolegend; 5G6), Siglec-1 (abcam; 7D2), HLA-DR FITC (Beckman Coulter; IM0463U), CD16 FITC (Biolegend; B73.1), CD14 FITC (BD 555397), CD69 PE (Beckman Coulter; IM1943), CD25 FITC (ABX228FITC), CD86 PE (Beckman Coulter; IM2729U), CD40 FITC (BD 555588), CD83 PE (Beckman Coulter; IM2218), CD163 PE (Biolegend; GHI/61), CXCR1 FITC (BD Pharmongen; 551126), CD45 PC5 (Beckman Coulter; IM2653U), CD206 PE (ebioscience; 19.2), PD-L1 PE (Biolegend; 29E.2A3), CD36 (Santa Cruz; H-300), TGFbetaRII (Bio-Techne; AF-241), IL-6Rα (Tocilizumab; Roche. A generous gift from Dr. Valerie Corrigall). […] At least 1×10^4 events were evaluated using either Epics XL, (Beckman Coulter) or FACSCalibur (BD Biosciences) flow cytometers. […]
Given that IL-6 and NO are known differentiation modulators (Oosterhoff et al. (2012) ONCOIMMUNOLOGY 1: 649-658; Bogdan (2015) TREND IMMUNOL. 36: 161-178) the effects of MUC1-ST on the differentiation of monocytes into macrophages was assessed. […]

[7] = system: monocytes; test: Calcium flux in monocytes (Fluo-4 intracellular calcium reporter); conditions: monocytes or macrophages, 100 μg/10^6 cells
Protocol: In addition, in a murine tumor model Siglec-E (the mouse Siglec with the most similarity to human Siglec-9), was associated with a decrease in alternatively activated macrophages (Laubli et al. (2014) PROC. NATL. ACAD. SCI. USA). As a result, the triggering of a calcium flux when MUC1-ST engaged Siglec-9 was investigated. Briefly, monocytes pre-labeled with an intracellular calcium reporter (Fluo-4; Life Technologies) were treated with MUC1-ST, MUC1-T (100 μg/10^6 cells) or a T47D monolayer, for 4 hours at 4° C. The cells were brought up to 37° C. and calcium flux was measured at 530 nm using a plate reader at the indicated time points. Where not indicated, the time point was 60 seconds. When monocytes or macrophages were treated with MUC1-ST, a Siglec-9 dependent increase in calcium influx was observed (FIGS. 13E-F). A calcium flux was also observed when monocytes and T47D cells came into contact. This effect could also be inhibited by the anti-Siglec-9 antibody.

[8] = system: SHP2; test: Activation of SHP2 after MUC1-ST binding
Protocol: as §1
A Western blot to assay phosphorylation of SHP, which is recruited by phosphorylated Siglec-9 (Avril et al. (2004) supra) was conducted. Monocytes were incubated with MUC1-ST and lysed as described above, and the resulting lysates were separated by SDS PAGE (10% gel) before being transferred, blocked and probed with anti-SHP1 (Santa Cruz), anti-phospho SHP1 (Abcam) and appropriate secondary antibodies. Phosphorylation of SHP was not observed after MUC1-ST binding to Siglec-9 on primary monocytes (FIG. 13C) although again, phosphorylation of SHP1 was observed when Siglec-9 was activated via antibody cross-linking. No activation of SHP2 was observed.

NeuAcα2,3Galβ1-3GalNAc linked via a Ser/Thr of MUC1 [MUC1-ST]
secretion of M-CSF, PAI-1, chitinase 3-like-1 and EGF [1]: increased secretion | tryptophan metabolite kynurenine in supernatant [2]: increase | nitric oxide production [3]: produced nitric oxide | activation of CD8+ T cells (expression of CD25 and CD69) [4]: lower level of activation | proliferation of CD8+ T cells ([4]; 48 hours co-culture): significantly inhibited | secretion of factors associated with inflammation and tumor progression (IL-6, M-CSF, PAI-1 validated by ELISA) [5]: induced | levels of CD86 and IL-12 [6]: lower levels | calcium influx [7]: increase | activation of SHP2 [8]: No activation

— patent publication US20190211099A1, “METHODS AND COMPOSITIONS FOR TREATING CANCER WITH SIGLEC-9 ACTIVITY MODULATORS” (KING'S COLLEGE LONDON, priority 2016, published 2019)
